Assay results published in patent publication US9029544B2, “Tricyclic pyridine derivatives, medicaments containing such compounds, their use and process for their preparation” (Boehringer Ingelheim International GmbH, priority 2010, dated 2015).

Target: T1, Recombinant human CETP (Homo sapiens, UniProt P11597)
T1 construct: made in house; host or cells: CHO cells (secreted into conditioned medium)
T1 sequence (P11597 18-493): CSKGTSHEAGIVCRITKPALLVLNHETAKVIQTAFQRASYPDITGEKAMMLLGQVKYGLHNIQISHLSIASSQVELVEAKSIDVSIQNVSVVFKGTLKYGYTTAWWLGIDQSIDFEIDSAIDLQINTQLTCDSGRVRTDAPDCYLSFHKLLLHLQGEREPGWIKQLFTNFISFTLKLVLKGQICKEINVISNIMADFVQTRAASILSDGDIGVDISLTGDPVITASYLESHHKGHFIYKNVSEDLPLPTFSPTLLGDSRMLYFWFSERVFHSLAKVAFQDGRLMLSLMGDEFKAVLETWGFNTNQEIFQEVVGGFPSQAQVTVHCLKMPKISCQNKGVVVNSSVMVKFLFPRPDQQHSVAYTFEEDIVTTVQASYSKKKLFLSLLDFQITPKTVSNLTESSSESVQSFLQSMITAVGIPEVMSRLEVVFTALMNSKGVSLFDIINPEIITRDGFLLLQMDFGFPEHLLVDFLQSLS
Test: CETP in vitro assay (fluorometric assay, Roar Biomedical; cholesterol ester transfer from HDL to LDL)
Format: biochemical
Settings: recombinant human CETP from CHO cells; 3 hours at 37° C.; fluorescence 485/535 nm; compound concentrations between 1 nM and 30 μM; read-out: IC50 values for inhibition of CETP
Procedure: CETP inhibitory activity of compounds of the present invention can be determined in a fluorometric assay purchased from Roar Biomedical, Inc. (New York, N.Y., USA). […] Recombinant human CETP was partially purified from medium conditioned by CETP expressing CHO cells. In a 384 well format 2.5 μl of compound solution in DMSO was combined with 2 μl of donor solution, 2 μl of acceptor solution and 0.8 μl of recombinant human CETP solution in a total volume of 100 μl with assay buffer and incubated for 3 hours at 37° C. The fluorescence intensity was measured at excitation wavelength of 485 nm and emission wavelength of 535 nm. IC50 values are calculated from dose effect curves from compound concentrations between 1 nM and 30 μM.

## CC(C)c1nc2c(c3c1[C@H](c1ccc(C(F)(F)F)cc1)OC31CCCC1)[C@H](O)CC(C)(C)C2 (single isomer, unassigned) [2 (Diastereomer 1), (3′S,9′R)-4′-isopropyl-7′,7′-dimethyl-3′-(4-(trifluoromethyl)phenyl)-6′,7′,8′,9′-tetrahydro-3′H-spiro[cyclopentane-1,1′-furo[3,4-c]quinolin]-9′-ol]
  IC50: 699 nM

## CC(C)c1nc2c(c3c1[C@@H](c1ccc(C(F)(F)F)cn1)OC31CCC(F)(F)CC1)[C@@H](O)CC(C)(C)C2 (single isomer, unassigned) [7 (Diastereomer 1), (3′S,9′S)-4,4-difluoro-4′-isopropyl-7′,7′-dimethyl-3′-(5-(trifluoromethyl)pyridin-2-yl)-6′,7′,8′,9′-tetrahydro-3′H-spiro[cyclohexane-1,1′-furo[3,4-c]quinolin]-9′-ol]
  IC50: 193 nM

## CC(C)c1nc2c(c3c1[C@H](c1ccc(C(F)(F)F)cn1)OC31CCC(F)(F)CC1)[C@@H](O)CC(C)(C)C2 (single isomer, unassigned) [7 (Diastereomer 2), (3′R,9′S)-4,4-difluoro-4′-isopropyl-7′,7′-dimethyl-3′-(5-(trifluoromethyl)pyridin-2-yl)-6′,7′,8′,9′-tetrahydro-3′H-spiro[cyclohexane-1,1′-furo[3,4-c]quinolin]-9′-ol]
  IC50: 1150 nM

## CC(=O)O[C@H]1c2nc(C(C)C)c3c(c2[C@@H](O)CC1(C)C)C1(CCCC1)O[C@@H]3c1ccc(C(F)(F)F)nc1 [1(46), (3′R,6′R,9′S)-9′-hydroxy-4′-isopropyl-7′,7′-dimethyl-3′-(6-(trifluoromethyl)pyridin-3-yl)-6′,7′,8′,9′-tetrahydro-3′H-spiro[cyclopentane-1,1′-furo[3,4-c]quinoline]-6′-yl acetate]
  IC50: 1830 nM

## CC(C)c1nc2c(c3c1[C@@H](c1ccc(C(F)(F)F)nc1)OC31CCOCC1)[C@@H](O)CC(C)(C)C2 [1(47), (3R,9S)-4-isopropyl-7,7-dimethyl-3-(6-(trifluoromethyl)pyridin-3-yl)-2′,3′,5′,6,6′,7,8,9-octahydro-3H-spiro[furo[3,4-c]quinoline-1,4′-pyran]-9-ol]
  IC50: 136 nM

## CC(=O)O[C@H]1c2nc(C(C)C)c3c(c2[C@@H](O)CC1(C)C)C1(CCOCC1)O[C@@H]3c1ccc(C(F)(F)F)cc1 [1(48), (3R,6R,9S)-9-hydroxy-4-isopropyl-7,7-dimethyl-3-(4-(trifluoromethyl)phenyl)-2′,3′,5′,6,6′,7,8,9-octahydro-3H-spiro[furo[3,4-c]quinoline-1,4′-pyran]-6-yl acetate]
  IC50: 142 nM

## CC(C)c1nc2c(c3c1[C@@H](c1ccc(C(F)(F)F)cn1)OC31CCOCC1)[C@@H](O)CC1(CCC1)C2 [1(49), (3S,9S)-4-isopropyl-7,7-(propan-1,3-diyl)-3-(5-(trifluoromethyl)pyridin-2-yl)-2′,3′,5′,6,6′,7,8,9-octahydro-3H-spiro[furo[3,4-c]quinoline-1,4′-pyran]-9-ol]
  IC50: 37 nM

## CC(C)c1nc2c(c3c1[C@@H](c1ccc(C(F)(F)F)cc1)OC31CCOCC1)[C@@H](O)CC1(CCC1)C2 [1(50), (3R,9S)-4-isopropyl-7,7-(propan-1,3-diyl)-3-(4-(trifluoromethyl)phenyl)-2′,3′,5′,6,6′,7,8,9-octahydro-3H-spiro[furo[3,4-c]quinoline-1,4′-pyran]-9-ol]
  IC50: 7 nM

## CC(C)c1nc2c(c3c1[C@@H](c1ccc(C(F)(F)F)cc1F)OC31CCOCC1)[C@@H](O)CC1(CCC1)C2 [1(51), (3S,9S)-3-(2-fluoro-4-(trifluoromethyl)phenyl)-4-isopropyl-7,7-(propan-1,3-diyl)-2′,3′,5′,6,6′,7,8,9-octahydro-3H-spiro[furo[3,4-c]quinoline-1,4′-pyran]-9-ol]
  IC50: 13 nM

## CC(C)c1nc2c(c3c1[C@@H](c1ccc(C(F)(F)F)nc1)OC31CCOCC1)[C@@H](O)CC1(CCC1)C2 [1(52), (3R,9S)-4-isopropyl-7,7-(propan-1,3-diyl)-3-(6-(trifluoromethyl)pyridin-3-yl)-2′,3′,5′,6,6′,7,8,9-octahydro-3H-spiro[furo[3,4-c]quinoline-1,4′-pyran]-9-ol]
  IC50: 54 nM

## CC(C)c1nc2c(c3c1[C@@H](c1ccc(C(F)(F)F)c(F)c1)OC31CCOCC1)[C@@H](O)CC(C)(C)C2 [1(53), (3R,9S)-3-(3-fluoro-4-(trifluoromethyl)phenyl)-4-isopropyl-7,7-dimethyl-2′,3′,5′,6,6′,7,8,9-octahydro-3H-spiro[furo[3,4-c]quinoline-1,4′-pyran]-9-ol]
  IC50: 23 nM

## CC(C)c1nc2c(c3c1[C@H](c1ccc(C(F)(F)F)c(F)c1)OC31CCOCC1)[C@@H](O)CC(C)(C)C2 [1(54), (3S,9S)-3-(3-fluoro-4-(trifluoromethyl)phenyl)-4-isopropyl-7,7-dimethyl-2′,3′,5′,6,6′,7,8,9-octahydro-3H-spiro[furo[3,4-c]quinoline-1,4′-pyran]-9-ol]
  IC50: 1690 nM

## CC(C)c1nc2c(c3c1[C@@H](c1ccc(C(F)(F)F)cc1F)OC31CCOCC1)[C@@H](O)CC(C)(C)C2 [1(55), (3S,9S)-3-(2-fluoro-4-(trifluoromethyl)phenyl)-4-isopropyl-7,7-dimethyl-2′,3′,5′,6,6′,7,8,9-octahydro-3H-spiro[furo[3,4-c]quinoline-1,4′-pyran]-9-ol]
  IC50: 26 nM

## Cc1nc([C@H]2OC3(CCOCC3)c3c2c(C(C)C)nc2c3[C@@H](O)CC(C)(C)C2)sc1C(C)(C)C [1(56), (3S,9S)-3-(5-tert-butyl-4-methylthiazol-2-yl)-4-isopropyl-7,7-dimethyl-2′,3′,5′,6,6′,7,8,9-octahydro-3H-spiro[furo[3,4-c]quinoline-1,4′-pyran]-9-ol]
  IC50: 470 nM

## CC(C)c1nc2c(c3c1[C@@H](c1ccc(C(F)(F)F)cc1)OC31CCOCC1)[C@@H](O)CC1(CCCC1)C2 [1(57), (3R,9S)-4-isopropyl-7,7-(butan-1,4-diyl)-3-(4-(trifluoromethyl)phenyl)-2′,3′,5′,6,6′,7,8,9-octahydro-3H-spiro[furo[3,4-c]quinoline-1,4′-pyran]-9-ol]
  IC50: 82 nM

## CC(C)c1nc2c(c3c1[C@@H](c1ccc(OC(C)(C)C)cc1)OC31CCOCC1)[C@@H](O)CC(C)(C)C2 [1(58), (3R,9S)-3-(4-tert-butoxyphenyl)-4-isopropyl-7,7-dimethyl-2′,3′,5′,6,6′,7,8,9-octahydro-3H-spiro[furo[3,4-c]quinoline-1,4′-pyran]-9-ol]
  IC50: 88 nM

## CC(C)Oc1ccc([C@H]2OC3(CCOCC3)c3c2c(C(C)C)nc2c3[C@@H](O)CC(C)(C)C2)cc1 [1(59), (3R,9S)-3-(4-isopropoxyphenyl)-4-isopropyl-7,7-dimethyl-2′,3′,5′,6,6′,7,8,9-octahydro-3H-spiro[furo[3,4-c]quinoline-1,4′-pyran]-9-ol]
  IC50: 245 nM

## C=C(C)c1ccc([C@H]2OC3(CCCC3)c3c2c(C(C)C)nc2c3[C@@H](O)CC(C)(C)C2)cc1 [1(60), (3′R,9′S)-4′-isopropyl-7′,7′-dimethyl-3′-(4-(prop-1-en-2-yl)phenyl)-6′,7′,8′,9′-tetrahydro-3′H-spiro[cyclopentane-1,1′-furo[3,4-c]quinolin]-9′-ol]
  IC50: 44 nM

## CC1(C)Cc2nc(C3CCOCC3)c3c(c2[C@@H](O)C1)C1(CCOCC1)O[C@@H]3c1ccc(S(F)(F)(F)(F)F)cc1 [1(61), (3R,9S)-7,7-dimethyl-4-(tetrahydro-2H-pyran-4-yl)-3-(4-(pentafluorosulfanyl)phenyl)-2′,3′,5′,6,6′,7,8,9-octahydro-3H-spiro[furo[3,4-c]quinoline-1,4′-pyran]-9-ol]
  IC50: 66 nM

## CC(C)c1nc2c(c3c1[C@@H](c1ccc(C(C)(C)C)cc1)OC31CCCC1)[C@@H](O)CC1(CCC1)C2 [1(62), (3′R,9′S)-3′-(4-tert-butylphenyl)-4′-isopropyl-7′,7′-(propan-1,3-diyl)-6′,7′,8′,9′-tetrahydro-3′H-spiro[cyclopentane-1,1′-furo[3,4-c]quinolin]-9′-ol]
  IC50: 21 nM

## CC(C)c1nc2c(c3c1[C@@H](c1ccc(C(C)(C)C)cc1)OC31CCOCC1)[C@@H](O)CC1(CCC1)C2 [1(63), (3R,9S)-3-(4-tert-butylphenyl)-4-isopropyl-7,7-(propan-1,3-diyl)-2′,3′,5′,6,6′,7,8,9-octahydro-3H-spiro[furo[3,4-c]quinoline-1,4′-pyran]-9-ol]
  IC50: 6 nM

## CC(C)c1nc2c(c3c1[C@@H](c1ccc(C4(C)COC4)cc1)OC31CCOCC1)[C@@H](O)CC(C)(C)C2 [1(64), (3R,9S)-4-isopropyl-7,7-dimethyl-3-(4-(3-methyloxetan-3-yl)phenyl)-2′,3′,5′,6,6′,7,8,9-octahydro-3H-spiro[furo[3,4-c]quinoline-1,4′-pyran]-9-ol]
  IC50: 86 nM

## CC(C)c1nc2c(c3c1[C@@H](c1ccc(C(F)(F)C(F)(F)F)cc1)OC31CCCC1)[C@@H](O)CC(C)(C)C2 [1(65), (3′R,9′S)-4′-isopropyl-7′,7′-dimethyl-3′-(4-(perfluoroethyl)phenyl)-6′,7′,8′,9′-tetrahydro-3′H-spiro[cyclopentane-1,1′-furo[3,4-c]quinolin]-9′-ol]
  IC50: 83 nM
